Source: US20120295907A1, “INSECTICIDAL COMPOUNDS” (SYNGENTA CROP PROTECTION, LLC, priority 2009, published 2012)

Columns and labels:
Assay type in all cases: in vivo
Spodoptera littoralis = Spodoptera littoralis (Egyptian Cotton Leafworm) cotton leaf disc spray test; details: foliar, 72 h, 200 ppm spray on cotton leaf discs, L1 larvae, mortality, feeding behavior, growth regulation 3 DAT
Heliothis virescens = Heliothis virescens (Tobacco Budworm) egg test on artificial diet; details: 96 h, 200 ppm (concentration in well 18 ppm), eggs 0-24 h old on artificial diet, 4 days, egg mortality, larval mortality, growth regulation
Plutella xylostella = Plutella xylostella (Diamond Back Moth) artificial diet MTP test; details: 144 h, 200 ppm (concentration in well 18 ppm), L2 larvae, 6 days, larval mortality, growth regulation
Diabrotica balteata = Diabrotica balteata (Corn Root Worm) artificial diet MTP test; details: 120 h, 200 ppm (concentration in well 18 ppm), L2 larvae, 5 days, larval mortality, growth regulation

| Structure (SMILES) | pest or weed control at 200 ppm (Spodoptera littoralis) [%] | pest or weed control at 200 ppm (Heliothis virescens) [%] | pest or weed control at 200 ppm (Plutella xylostella) [%] | pest or weed control at 200 ppm (Diabrotica balteata) [%] |
| --- | --- | --- | --- | --- |
| COc1c(NC(=O)c2c(C)nn(C)c2Cl)cccc1C(=O)Nc1c(Cl)cc(C(F)(C(F)(F)F)C(F)(F)C(F)(F)F)cc1Br (centres unmarked) [B142] | ≥ 80 |  |  |  |
| COc1c(NC(=O)c2csc(Cl)c2OC)cccc1C(=O)Nc1c(Cl)cc(C(F)(C(F)(F)F)C(F)(F)C(F)(F)F)cc1Br (centres unmarked) [B147] | ≥ 80 |  |  |  |
| COc1c(NC(=O)c2cc([N+](=O)[O-])ccc2F)cccc1C(=O)Nc1c(Cl)cc(C(F)(C(F)(F)F)C(F)(F)C(F)(F)F)cc1Br (centres unmarked) [B148] | ≥ 80 | ≥ 80 | ≥ 80 |  |
| COc1c(NC(=O)c2cn(C)nc2C(F)(F)F)cccc1C(=O)Nc1c(Cl)cc(C(F)(C(F)(F)F)C(F)(F)C(F)(F)F)cc1Br (centres unmarked) [B152] | ≥ 80 | ≥ 80 | ≥ 80 |  |
| COc1c(NC(=O)c2c(C)noc2C)cccc1C(=O)Nc1c(Cl)cc(C(F)(C(F)(F)F)C(F)(F)C(F)(F)F)cc1Br (centres unmarked) [B157] | ≥ 80 | ≥ 80 |  |  |
| COc1c(NC(=O)c2cc(Cl)cc(Cl)c2O)cccc1C(=O)Nc1c(Cl)cc(C(F)(C(F)(F)F)C(F)(F)C(F)(F)F)cc1Br (centres unmarked) [B160] |  |  | ≥ 80 |  |
| COc1cccc(OC)c1C(=O)Nc1cccc(C(=O)Nc2c(Cl)cc(C(F)(C(F)(F)F)C(F)(F)C(F)(F)F)cc2Br)c1OC (centres unmarked) [B164] |  |  | ≥ 80 |  |
| COc1c(NC(=O)c2ccc([N+](=O)[O-])c(O)c2)cccc1C(=O)Nc1c(Cl)cc(C(F)(C(F)(F)F)C(F)(F)C(F)(F)F)cc1Br (centres unmarked) [B181] |  |  |  | ≥ 80 |
| COc1c(NC(=O)c2ccc(C)cc2Cl)cccc1C(=O)Nc1c(Cl)cc(C(F)(C(F)(F)F)C(F)(F)C(F)(F)F)cc1Br (centres unmarked) [B182] | ≥ 80 | ≥ 80 | ≥ 80 |  |
| COc1c(NC(=O)c2cc(Cl)sc2Cl)cccc1C(=O)Nc1c(Cl)cc(C(F)(C(F)(F)F)C(F)(F)C(F)(F)F)cc1Br (centres unmarked) [B186] | ≥ 80 |  |  |  |
| COc1c(NC(=O)c2ncc(Br)cn2)cccc1C(=O)Nc1c(Cl)cc(C(F)(C(F)(F)F)C(F)(F)C(F)(F)F)cc1Br (centres unmarked) [B187] | ≥ 80 |  | ≥ 80 | ≥ 80 |
| COc1c(NC(=O)c2ncccc2C(F)(F)F)cccc1C(=O)Nc1c(Cl)cc(C(F)(C(F)(F)F)C(F)(F)C(F)(F)F)cc1Br (centres unmarked) [B188] | ≥ 80 | ≥ 80 |  |  |
| COc1c(NC(=O)c2cc(Cl)ccc2F)cccc1C(=O)Nc1c(Cl)cc(C(F)(C(F)(F)F)C(F)(F)C(F)(F)F)cc1Cl (centres unmarked) [C10] | ≥ 80 | ≥ 80 |  | ≥ 80 |
| COc1c(NC(=O)c2ccccc2OC(F)(F)F)cccc1C(=O)Nc1c(Cl)cc(C(F)(C(F)(F)F)C(F)(F)C(F)(F)F)cc1Cl (centres unmarked) [C16] |  | ≥ 80 |  |  |
| COc1ccccc1C(=O)Nc1cccc(C(=O)Nc2c(Cl)cc(C(F)(C(F)(F)F)C(F)(F)C(F)(F)F)cc2Cl)c1OC (centres unmarked) [C17] |  | ≥ 80 |  |  |
| COc1c(NC(=O)c2ccco2)cccc1C(=O)Nc1c(Cl)cc(C(F)(C(F)(F)F)C(F)(F)F)cc1Cl [E10] | ≥ 80 | ≥ 80 | ≥ 80 |  |
| COc1c(NC(=O)c2ccccc2OC(F)(F)F)cccc1C(=O)Nc1c(Cl)cc(C(F)(C(F)(F)F)C(F)(F)F)cc1Cl [E14] | ≥ 80 | ≥ 80 | ≥ 80 |  |
| COc1ccccc1C(=O)Nc1cccc(C(=O)Nc2c(Cl)cc(C(F)(C(F)(F)F)C(F)(F)F)cc2Cl)c1OC [E15] | ≥ 80 | ≥ 80 | ≥ 80 |  |
| COc1c(NC(=O)c2ccccc2C)cccc1C(=O)Nc1c(C)cc(C(F)(C(F)(F)F)C(F)(F)C(F)(F)F)cc1C (centres unmarked) [F2] | ≥ 80 | ≥ 80 | ≥ 80 |  |
| COc1c(NC(=O)c2ccco2)cccc1C(=O)Nc1c(C)cc(C(F)(C(F)(F)F)C(F)(F)C(F)(F)F)cc1C (centres unmarked) [F4] | ≥ 80 | ≥ 80 | ≥ 80 |  |
| COc1c(NC(=O)c2cccc(C)c2C)cccc1C(=O)Nc1c(C)cc(C(F)(C(F)(F)F)C(F)(F)C(F)(F)F)cc1C (centres unmarked) [F11] |  |  | ≥ 80 |  |
| COc1c(NC(=O)c2ccc(Cl)cc2F)cccc1C(=O)Nc1c(C)cc(C(F)(C(F)(F)F)C(F)(F)C(F)(F)F)cc1C (centres unmarked) [F13] | ≥ 80 | ≥ 80 |  |  |
| CCc1cc(C(F)(C(F)(F)F)C(F)(F)F)cc(C)c1NC(=O)c1cccc(NC(=O)c2ccc(C#N)cc2Cl)c1OC [J1] |  |  | ≥ 80 | ≥ 80 |
